Test systems include HT29 colon; SF-295 CNS; HCT-15 colon; NCI-H460 lung; MOLT-4 leukemia; A549 NSCLC; SF-539 CNS; OVCAR-3 ovarian; HCT-116 colon; OVCAR-8 ovarian.
What all share (assay): DTP human tumour cell line panel, 48 h

Our source for the TGI and GI50 values is PubChem BioAssay (NCI).

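Assay format: 96-well plates, 48-hour exposure. GI50 marks 50% less growth. TGI: concentration producing complete growth inhibition.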

Consider `CC(=O)Oc1ccc2c(c1)oc1c3ccc(OC(C)=O)cc3n(C)c(=O)c21`, for which the TGI in the experiment on HT29 colon, in the experiment with SF-295 CNS, in the experiment on HCT-15 colon, with NCI-H460 lung, with MOLT-4 leukemia and with A549 NSCLC was more than 100 µM throughout. Besides, the TGI in the experiment on SF-539 CNS is more than 100 µM; in the experiment on OVCAR-3 ovarian, more than 100 µM; with HCT-116 colon, 48.7 µM; in the experiment with OVCAR-8 ovarian, 79.3 µM.
`O=[N+]([O-])c1ccccc1NC1c2ccccc2Oc2ccccc21`: the GI50 in the experiment on HT29 colon was 3.83 µM; in the experiment on SF-295 CNS it was 4.45 µM; in the experiment with HCT-15 colon, 3.5 µM; in the experiment on NCI-H460 lung it was 3.87 µM; with MOLT-4 leukemia, 5.03 µM; in the experiment with A549 NSCLC it was 6.51 µM. The GI50 with SF-539 CNS is 3.27 µM; with OVCAR-3 ovarian, 3.64 µM; with HCT-116 colon it was 4.08 µM; with OVCAR-8 ovarian, 6.73 µM. Moreover, the TGI in the experiment with HT29 colon, in the experiment with SF-295 CNS, in the experiment on HCT-15 colon, in the experiment with NCI-H460 lung, in the experiment with MOLT-4 leukemia and with A549 NSCLC was more than 100 µM in each case. Further, the TGI in the experiment with SF-539 CNS, in the experiment with OVCAR-3 ovarian, with HCT-116 colon and with OVCAR-8 ovarian was more than 100 µM each time.
As to `CCN(CC)CCCNc1ncc(C)c2[nH]c3ccncc3c12`, the TGI in the experiment on HT29 colon is 26.2 µM; in the experiment on SF-295 CNS, 29.7 µM; in the experiment on HCT-15 colon it was more than 100 µM; in the experiment on NCI-H460 lung, 15.6 µM; with MOLT-4 leukemia, 18.4 µM; in the experiment with A549 NSCLC it was 22.7 µM. Also, the TGI is 20.9 µM in the experiment on SF-539 CNS, 56.3 µM in the experiment on OVCAR-3 ovarian, 30.3 µM in the experiment with HCT-116 colon and 96.8 µM with OVCAR-8 ovarian.
With `COC(=O)c1cccc(N[C@@H]2c3cc4c(cc3C(c3cc(OC)c(O)c(OC)c3)[C@H]3C(=O)OCC32)OCO4)c1` (stereo partly drawn), the TGI in the experiment with HT29 colon came to 16 µM; with SF-295 CNS it was 5.96 µM; in the experiment with HCT-15 colon it was 4.54 µM; with NCI-H460 lung, 2.24 µM; in the experiment on MOLT-4 leukemia, 1.36 µM; in the experiment on A549 NSCLC it was 3.25 µM. Moreover, the TGI in the experiment with SF-539 CNS was 3.64 µM; in the experiment with OVCAR-3 ovarian it was 33.7 µM; in the experiment with HCT-116 colon, 21.9 µM; with OVCAR-8 ovarian it was more than 37 µM.
Take `N=C(N)c1ccc(-c2ccc(-c3ccccc3)s2)cc1`: in the experiment with A549 NSCLC, the GI50 was 2.14 µM and the total growth inhibition concentration (TGI) was 4.73 µM. Further, in the experiment with SF-539 CNS, the GI50 is 1.63 µM and the TGI turned out to be 3 µM.
`S=P1(N2CCCCC2)Oc2ccc3ccccc3c2-c2c(ccc3ccccc23)O1`: the TGI with HT29 colon is more than 100 µM; in the experiment with SF-295 CNS it was more than 100 µM; in the experiment on HCT-15 colon, more than 100 µM; in the experiment with NCI-H460 lung it was more than 91.6 µM; in the experiment on MOLT-4 leukemia, more than 100 µM; in the experiment on A549 NSCLC, more than 100 µM. Also, the TGI in the experiment on SF-539 CNS is more than 100 µM; in the experiment on OVCAR-3 ovarian, more than 88.3 µM; in the experiment with HCT-116 colon it was more than 100 µM; in the experiment with OVCAR-8 ovarian, more than 100 µM.
`CCCCCCCC/C=C\CCCCCCCC(=O)O`: the TGI in the experiment with HT29 colon was more than 500 µM; with SF-295 CNS, 176 µM; in the experiment with HCT-15 colon, 338 µM; with NCI-H460 lung, 192 µM; in the experiment with MOLT-4 leukemia it was 331 µM; in the experiment on A549 NSCLC, 226 µM. The TGI was 184 µM in the experiment on SF-539 CNS, more than 232 µM in the experiment on OVCAR-3 ovarian, 217 µM in the experiment with HCT-116 colon and 194 µM in the experiment with OVCAR-8 ovarian.
For the compound `Cc1cc(C)c2c(c1)CC1(Cc3c(C)ccc(C)c3C1=O)C2=O` (stereo not drawn), the TGI in the experiment on SF-295 CNS, with HCT-15 colon, with NCI-H460 lung, with MOLT-4 leukemia, in the experiment with A549 NSCLC and in the experiment with SF-539 CNS was more than 100 µM throughout. Moreover, the TGI in the experiment with OVCAR-3 ovarian and in the experiment on OVCAR-8 ovarian was more than 100 µM in each case.
Consider `O=C(O)CS`, for which the concentration for total growth inhibition (TGI) in the experiment with HT29 colon, in the experiment with SF-295 CNS, with HCT-15 colon, in the experiment on NCI-H460 lung, with MOLT-4 leukemia and with A549 NSCLC was more than 100 µM each time. For the same compound, the TGI in the experiment with SF-539 CNS and in the experiment on HCT-116 colon was more than 100 µM each time.
For `COc1cc(/C=C/c2cc(/C=C/c3ccc(O)c(OC)c3)nc(N)n2)ccc1O`, the 50% growth inhibitory concentration (GI50) is 0.314 µM in the experiment with HT29 colon; 1.93 µM in the experiment on SF-295 CNS; 2.82 µM in the experiment with HCT-15 colon; 2.05 µM with NCI-H460 lung; 1.01 µM with MOLT-4 leukemia; 2.22 µM with A549 NSCLC. Also, the GI50 was 2.05 µM in the experiment with SF-539 CNS, 2.65 µM in the experiment with OVCAR-3 ovarian, 1.1 µM in the experiment with HCT-116 colon and 2.19 µM with OVCAR-8 ovarian. Also, the TGI was 0.948 µM in the experiment with HT29 colon; 4.54 µM in the experiment on SF-295 CNS; 10.3 µM with HCT-15 colon; 5.2 µM with NCI-H460 lung; 5.19 µM in the experiment with MOLT-4 leukemia; 6.04 µM in the experiment on A549 NSCLC. Besides, the TGI in the experiment on SF-539 CNS stood at 5.73 µM; with OVCAR-3 ovarian, 8.62 µM; in the experiment on HCT-116 colon it was 2.39 µM; in the experiment with OVCAR-8 ovarian, 7.24 µM.
`CCNc1nnc(-c2nsc3ccccc23)s1`: the TGI is 93.3 µM with HT29 colon; more than 100 µM in the experiment with HCT-15 colon; 88.6 µM in the experiment on NCI-H460 lung; more than 100 µM in the experiment with MOLT-4 leukemia; more than 100 µM in the experiment on A549 NSCLC; more than 100 µM with SF-539 CNS. For the same compound, the TGI with OVCAR-3 ovarian was 57.6 µM; with HCT-116 colon, 75.2 µM; in the experiment on OVCAR-8 ovarian, more than 100 µM.
Consider `O=C1C=CC2=[N+]([O-])C(c3ccccc3)(c3ccccc3)C(=Nc3ccccc3)C2=C1`, for which the TGI worked out at 5.63 µM in the experiment with HT29 colon; 27.7 µM in the experiment on SF-295 CNS; 6.34 µM in the experiment on HCT-15 colon; 34.4 µM in the experiment with NCI-H460 lung; 29.4 µM in the experiment with A549 NSCLC; 19.5 µM in the experiment with SF-539 CNS. Further, the figures for the TGI in the experiment with OVCAR-3 ovarian, in the experiment with HCT-116 colon and in the experiment on OVCAR-8 ovarian were 3.37 µM, 3.92 µM and 3.39 µM, respectively.
In the case of `C=C1C(=O)C[C@@]23CCC[C@@]12CC(OCOC)C3` (stereo partly drawn), the TGI with HT29 colon came out at 4.41 µM; with SF-295 CNS, 17.3 µM; in the experiment with HCT-15 colon it was 3.08 µM; with NCI-H460 lung, 13.2 µM; in the experiment on MOLT-4 leukemia it was 9.93 µM; in the experiment with A549 NSCLC, 28.4 µM. Moreover, the TGI stood at 9.5 µM in the experiment on SF-539 CNS, 6.48 µM with OVCAR-3 ovarian, 6 µM in the experiment with HCT-116 colon and 9.96 µM with OVCAR-8 ovarian.
With `CC(C)CCC[C@@H](C)C1CCC2[C@@H]3CC=C4C[C@@H](C(=O)NCC[N+](C)(C)CCCS(=O)(=O)[O-])CC[C@]4(C)C3CC[C@@]21C` (stereo partly drawn), the TGI with HT29 colon is 33 µM; with SF-295 CNS, 35 µM; in the experiment with HCT-15 colon it was 30.9 µM; with NCI-H460 lung, 30.6 µM; with MOLT-4 leukemia, 35.1 µM; in the experiment on A549 NSCLC, 31.7 µM. The TGI in the experiment with SF-539 CNS worked out at 36.6 µM; in the experiment with OVCAR-3 ovarian, 30 µM; with HCT-116 colon it was 30.9 µM; in the experiment on OVCAR-8 ovarian, 35 µM.

In general, TGI refers to the concentration giving total growth inhibition. Read a high TGI as lower sensitivity of the cells. For orientation: GI50 means the concentration that inhibits growth by half.
